These results are taken from patent publication US12673050B2, “Compositions and their use for the treatment of A1-antitrypsin deficiency” (Centessa Pharmaceuticals (UK) Limited, priority 2021, dated 2026).

For one data set, the target named is hERG (Homo sapiens, UniProt Q12809). As to the kind of experiment: hERG channel inhibition, Patchliner automated patch clamp. The settings on record: human; at 100 μM. Format: cell-based. As to the method:
(§1) (S)-1-((2-(trifluoromethyl)phenyl)sulfonyl)piperidine-3-carboxylic acid was tested for inhibition of cardiac potassium (hERG) channels using the Patchliner automated patch clamp. 6-Point concentration-response curves were generated using half-log serial dilutions from a maximum final test concentration of 100 μM. IC50 values were obtained from a 4-parameter logistic fit of the concentration-response data. […] Reference compound values were consistent with those presented in the literature (Elkins et al., 2013 J. Pharm. Tox. Meth. 68:11-122).

Data set [1] addresses cardiac potassium (hERG) channels (Homo sapiens, UniProt Q12809). Described as above. Format: cell-based. The settings on record: 6-point curve, maximum 100 μM. As to the method: as §1
For the next data set, the target named is human Z A1AT (Homo sapiens, UniProt P01009, E366K). The data set is described as follows: Circulating human Z A1AT levels in huZ mice. Set-up: from tissue; host or cells: huZ transgenic mice (line Z11.03, C57Bl/6); expressed in liver, measured in plasma. Format: in vivo, mouse. To be noted: huZ mice, 5, 15 or 50 mg/kg twice a day by oral gavage for 14 days, plasma days 12-14. The source says: The huZ mouse (also referred to as the PiZZ mouse) is a transgenic mouse strain that contains multiple copies of the Z variant of the human A1AT gene, developed by two separate groups (Dycaico et al (Science (1988) 242:1409-12) and Carlson et al (J. Clin Invest (1989) 83:1183-90)). HuZ mice are on a C57Bl/6 background and express the human Z A1AT protein in liver tissue. The mice used in this study are from the progeny of Carlson and colleagues (transgenic line Z11.03). […]
Chain of human Z A1AT (P01009 25-418 E366K): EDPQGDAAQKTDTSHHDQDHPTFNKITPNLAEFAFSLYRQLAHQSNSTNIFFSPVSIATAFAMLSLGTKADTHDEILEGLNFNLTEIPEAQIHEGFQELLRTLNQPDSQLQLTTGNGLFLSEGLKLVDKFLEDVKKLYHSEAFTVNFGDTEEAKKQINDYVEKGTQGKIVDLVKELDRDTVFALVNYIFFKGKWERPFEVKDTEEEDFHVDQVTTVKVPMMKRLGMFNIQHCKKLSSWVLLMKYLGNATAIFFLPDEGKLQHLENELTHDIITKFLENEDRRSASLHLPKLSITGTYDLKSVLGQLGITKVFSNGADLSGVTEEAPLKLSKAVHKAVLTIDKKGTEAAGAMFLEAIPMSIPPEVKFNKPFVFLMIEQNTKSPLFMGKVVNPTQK
HuZ mice (n=4/group: male or female) with basal human A1AT plasma levels of between 200-600 μg/ml were treated with either vehicle or (S)-1-((2-(trifluoromethyl)phenyl)sulfonyl)piperidine-3-carboxylic acid at 5, 15 or 50 mg/kg twice a day by oral gavage for 14 consecutive days. […] Human A1AT levels in mouse plasma samples were measured by ELISA (Human Serpin A1/α1 antitrypsin duo set ELISA, R& D Systems, DY1268) per manufacturer's instructions.
Briefly, a 96 well plate was coated with human A1AT capture antibody overnight at room temperature (1:180 dilution from stock, 100 μl final volume/well). […] After which, 50 μl stop solution (2M H2SO4) was added and optical density (OD) of each well was read at 450 nm with 570 nm blank subtracted from each well using a microplate reader. […]

Chain of hERG (Q12809 whole entry): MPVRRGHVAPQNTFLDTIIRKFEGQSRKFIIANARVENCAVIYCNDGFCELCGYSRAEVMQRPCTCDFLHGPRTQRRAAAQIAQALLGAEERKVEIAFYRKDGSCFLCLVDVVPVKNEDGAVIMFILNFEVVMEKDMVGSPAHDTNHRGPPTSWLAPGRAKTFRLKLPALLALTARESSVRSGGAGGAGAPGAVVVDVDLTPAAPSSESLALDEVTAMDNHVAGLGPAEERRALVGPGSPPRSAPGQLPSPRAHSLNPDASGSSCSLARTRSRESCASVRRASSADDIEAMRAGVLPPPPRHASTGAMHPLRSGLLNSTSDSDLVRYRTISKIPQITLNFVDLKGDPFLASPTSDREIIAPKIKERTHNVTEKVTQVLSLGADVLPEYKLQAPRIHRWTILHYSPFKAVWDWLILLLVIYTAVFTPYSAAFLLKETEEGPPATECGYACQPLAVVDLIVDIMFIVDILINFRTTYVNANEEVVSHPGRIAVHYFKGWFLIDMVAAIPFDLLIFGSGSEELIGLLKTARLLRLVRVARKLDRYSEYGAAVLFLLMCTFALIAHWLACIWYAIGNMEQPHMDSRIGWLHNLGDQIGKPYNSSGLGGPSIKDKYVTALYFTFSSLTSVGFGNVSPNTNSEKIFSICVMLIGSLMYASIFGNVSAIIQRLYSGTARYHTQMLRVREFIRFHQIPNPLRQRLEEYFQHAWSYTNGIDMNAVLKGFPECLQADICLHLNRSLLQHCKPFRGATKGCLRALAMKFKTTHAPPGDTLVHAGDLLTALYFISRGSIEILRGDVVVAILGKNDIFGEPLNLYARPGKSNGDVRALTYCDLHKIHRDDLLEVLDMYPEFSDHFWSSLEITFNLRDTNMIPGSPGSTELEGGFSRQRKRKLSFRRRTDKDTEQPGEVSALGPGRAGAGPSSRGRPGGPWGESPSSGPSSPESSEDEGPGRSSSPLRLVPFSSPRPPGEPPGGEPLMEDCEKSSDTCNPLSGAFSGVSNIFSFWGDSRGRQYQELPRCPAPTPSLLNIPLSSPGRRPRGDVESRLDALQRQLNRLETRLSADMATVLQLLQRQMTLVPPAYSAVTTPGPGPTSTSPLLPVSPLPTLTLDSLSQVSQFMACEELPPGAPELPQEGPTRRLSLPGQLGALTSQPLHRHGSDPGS
Chain of cardiac potassium (hERG) channels (Q12809 whole entry): as above

Regarding `O=C(O)[C@H]1CCCN(S(=O)(=O)c2ccccc2C(F)(F)F)C1` [(S)-1-((2-(Trifluoromethyl)phenyl)sulfonyl)piperidine-3-carboxylic acid], on hERG, at 100 µM the inhibition was 7%. Further, the IC50 in data set [1] was above 100 µM. On human Z A1AT, the “circulating human Z A1AT compared to baseline levels” value was “stimulates secretion of human Z A1AT compared to baseline levels in huZ mice in a dose dependent manner”.
